Structures are written as SMILES.

This assay addresses T1, human Mas receptor (Homo sapiens, UniProt P04201).
T1 construct: expressed in transfected cells
T1 sequence (P04201 1-325): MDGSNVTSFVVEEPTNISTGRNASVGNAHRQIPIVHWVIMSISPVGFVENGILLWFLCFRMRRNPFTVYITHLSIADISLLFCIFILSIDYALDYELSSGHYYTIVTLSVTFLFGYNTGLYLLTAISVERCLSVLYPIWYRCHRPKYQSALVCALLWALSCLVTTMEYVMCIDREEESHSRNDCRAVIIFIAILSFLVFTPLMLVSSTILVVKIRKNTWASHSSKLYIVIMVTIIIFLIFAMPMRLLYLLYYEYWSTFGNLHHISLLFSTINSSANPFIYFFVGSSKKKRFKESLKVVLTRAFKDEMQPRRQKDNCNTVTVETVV
The assay is described as follows: Mas receptor IP3 assay (inverse agonist assay). The assay is classed as cell-based. As to conditions: HEK293 cells over-expressing human Mas receptor; average from several experiments. The procedure:
The Mas receptor IP3 assay was performed using a mammalian cell line (HEK293) which was transfected with a plasmid containing the human Mas receptor and selected for stable expression of the receptor. For the inverse agonist assay, higher levels of Mas receptor constitutive activity were desired. To achieve this, Mas receptor expression levels were increased by transiently transfecting the same Mas receptor stable cell line with additional human Mas receptor plasmid DNA following standard procedures. These cells were used in the Mas receptor IP3 assay approximately 24 hours post-transfection.
Cells were split into 96-well plates (50,000 cells/well) and allowed to attach for a period of 6 hours. The growth medium was then replaced with medium supplemented with 4 μCi/ml [^3H]myo-inositol (100 μl; Perkin Elmer Life Sciences) and the cells were allowed to incubate for approximately 20 hours. Test compounds were serially diluted in inositol-free media containing 10 mM LiCl. The media in the plates was removed by aspiration, replaced with these test compound solutions and incubated at 37° C. for 1 hour. Following this incubation, the media was removed by aspiration and replaced with buffer containing 0.1M formic acid. The plates were then frozen overnight at −80° C. to achieve complete cell lysis.
The following day, the assay plates were thawed at room temperature. The thawed contents were then transfered to 96-well filter plates (Millipore, Multiscreen) pre-loaded with resin (Biorad, AG1-X8 100-200 mesh, formate form). The plate was filtered using a vacuum manifold and the resin was washed multiple times with water. An elution buffer was then applied (200 μl, 0.2M Ammonium formate/0.1M formic acid) and the resulting eluent was collected, under vacuum, in a 96-well collection plate. Aliquots of the eluent (80 μl) were transferred to filter plates (Whatman, Unifilter GF/C) and dried in a 45° C. oven overnight. Dried plates were counted on a scintillation counter following the addition of an appropriate scintillant (Perkin Elmer Life Sciences, Optiphase Supermix or Hi-Safe 3).
Regarding `C=CCN1CCC2(CC1)CN(C(=O)c1cccc(C(Cl)Cl)c1)c1ccccc12` [Compound 102, 1′-(allyl)-1,2-dihydro-1-(3-dichloromethyl-benzoyl)-spiro[3H-indole-3,4′-piperidine]], the IC50 was found to be 939 nM.
The figure for `O=C1c2ccccc2-c2cccc(C(=O)N3CC4(CCN(CC5CC5)CC4)c4cc(F)ccc43)c21` [Compound 153, 1′-(cyclopropylmethyl)-1,2-dihydro-5-fluoro-1-(9-oxo-9H-fluorene-1-carbonyl)-spiro[3H-indole-3,4′-piperidine]] is 774 nM; for `C=CCN1CCC2(CC1)CN(C(=O)c1cccnc1Cl)c1ccc(F)cc12` [Compound 93, 1′-(allyl)-1,2-dihydro-5-fluoro-1-(2-chloro-pyridine-3-carbonyl)-spiro[3H-indole-3,4′-piperidine]] it is 841 nM; for `C=CCN1CCC2(CC1)CN(C(=O)c1ccc(F)cc1F)c1ccc(F)cc12` [Compound 76, 1′-(allyl)-1,2-dihydro-5-fluoro-1-(2,4-difluoro-benzoyl)-spiro[3H-indole-3,4′-piperidine]] it is 936 nM.
With `C=CCN1CCC2(CC1)CN(C(=O)c1cccc(Cl)c1)c1ccc(F)cc12` [Compound 86, 1′-(allyl)-1,2-dihydro-5-fluoro-1-(3-chloro-benzoyl)-spiro[3H-indole-3,4′-piperidine]], the IC50 turned out to be 705 nM.
Compound `C=CCN1CCC2(CC1)CN(C(=O)c1ccc(Br)s1)c1ccc(F)cc12` [Compound 223, 1′-(allyl)-1,2-dihydro-5-fluoro-1-(5-bromo-thiophene-2-carbonyl)-spiro[3H-indole-3,4′-piperidine]] displayed an IC50 of 307 nM. Compared with the last compound, the IC50 is about 2.3-fold lower.
As for `C=CCN1CCC2(CC1)CN(C(=O)c1ccc([N+](=O)[O-])cc1)c1ccc(F)cc12` [Compound 83, 1′-(allyl)-1,2-dihydro-5-fluoro-1-(4-nitro-benzoyl)-spiro[3H-indole-3,4′-piperidine]], the IC50 turned out to be 757 nM. This IC50 is about 2.5-fold higher than that of the compound before.
As for `O=C(c1cccc(Cl)c1)N1CC2(CCN(CC3CC3)CC2)c2cc(F)ccc21` [Compound 165, 1′-(cyclopropylmethyl)-1,2-dihydro-5-fluoro-1-(3-chloro-benzoyl)-spiro[3H-indole-3,4′-piperidine]], the IC50 was 757 nM. That is a sub-micromolar value.
With `C=CCN1CCC2(CC1)CN(C(=O)c1cccc3ccccc13)c1ccccc12` [Compound 133, 1′-(allyl)-1,2-dihydro-1-(naphthylene-1-carbonyl)-spiro[3H-indole-3,4′-piperidine]] the figure was 535 nM; with `C=CCN1CCC2(CC1)CN(C(=O)c1cccc3ccccc13)c1ccc(F)cc12` [Compound 85, 1′-(allyl)-1,2-dihydro-5-fluoro-1-(naphthalene-1-carbonyl)-spiro[3H-indole-3,4′-piperidine]], 381 nM; with `C=CCN1CCC2(CC1)CN(S(=O)(=O)c1ccccc1F)c1ccc(F)cc12` [Compound 229, 1′-(allyl)-1,2-dihydro-5-fluoro-1-(2-fluoro-benzenesulfonyl)-spiro[3H-indole-3,4′-piperidine]], 846 nM.
`O=C(N1CC2(CCN(CC3CC3)CC2)c2cc(F)ccc21)C12CC3CC(CC(C3)C1)C2` [Compound 168, 1′-(cyclopropylmethyl)-1,2-dihydro-5-fluoro-1-(adamantane-1-carbonyl)-spiro[3H-indole-3,4′-piperidine]] displayed an IC50 of 502 nM.
Consider `C=CCN1CCC2(CC1)CN(C(=O)c1cc(OC)cc(OC)c1)c1ccc(F)cc12` [Compound 73, 1′-(allyl)-1,2-dihydro-5-fluoro-1-(3,5-dimethoxy-benzoyl)-spiro[3H-indole-3,4′-piperidine]], for which the IC50 stood at 867 nM.
Compound `O=C(c1cccc(F)c1F)N1CC2(CCN(CC3CC3)CC2)c2cc(F)ccc21` [Compound 142, 1′-(cyclopropylmethyl)-1,2-dihydro-5-fluoro-1-(2,3-difluoro-benzoyl)-spiro[3H-indole-3,4′-piperidine]] returned an IC50 of 480 nM. This IC50 lies about 1.8-fold lower than the previous one.
As for `C=CCN1CCC2(CC1)CN(C(=O)c1ccc3c(c1)OCO3)c1ccc(F)cc12` [Compound 89, 1′-(allyl)-1,2-dihydro-5-fluoro-1-(benzo[1,3]dioxole-5-carbonyl)-spiro[3H-indole-3,4′-piperidine]], the IC50 worked out at 989 nM.
With `C=CCN1CCC2(CC1)CN(C(=O)c1cccc(C(Cl)Cl)c1)c1ccc(F)cc12` [Compound 92, 1′-(allyl)-1,2-dihydro-5-fluoro-1-(3-dichloromethyl-benzoyl)-spiro[3H-indole-3,4′-piperidine]] the figure was 592 nM.
Compound `C=CCN1CCC2(CC1)CN(C(=O)c1ccccc1F)c1ccc(OC)cc12` [Compound 204, 1′-(allyl)-1,2-dihydro-5-methoxy-1-(2-fluoro-benzoyl)-spiro[3H-indole-3,4′-piperidine]] had an IC50 of 554 nM.
Take `O=C(c1cccc(C(Cl)Cl)c1)N1CC2(CCN(CC3CC3)CC2)c2cc(F)ccc21` [Compound 147, 1′-(cyclopropylmethyl)-1,2-dihydro-5-fluoro-1-(3-dichloromethyl-benzoyl)-spiro[3H-indole-3,4′-piperidine]]: the IC50 amounted to 735 nM.
Compound `C=CCN1CCC2(CC1)CN(S(=O)(=O)c1ccc(Cl)cc1Cl)c1ccc(F)cc12` [Compound 185, 1′-(allyl)-1,2-dihydro-5-fluoro-1-(2,4-dichloro-benzenesulfonyl)-spiro[3H-indole-3,4′-piperidine]] registered an IC50 of 956 nM.
`C=CCN1CCC2(CC1)CN(C(=O)c1ccccc1Cl)c1ccc(F)cc12` [Compound 69, 1′-(allyl)-1,2-dihydro-5-fluoro-1-(2-chloro-benzoyl)-spiro[3H-indole-3,4′-piperidine]] showed an IC50 of 378 nM.
Regarding `COc1ccc(C(=O)N2CC3(CCN(CC4CC4)CC3)c3cc(F)ccc32)cc1` [Compound 31, 1′-(cyclopropylmethyl)-1,2-dihydro-5-fluoro-1-(4-methoxy-benzoyl)-spiro[3H-indole-3,4′-piperidine]], the IC50 was 900 nM. Compared with the last compound, the IC50 is about 2.4-fold higher.
Compound `CN1CCC2(CC1)CN(C(=O)c1cccc(C(Cl)Cl)c1)c1ccc(F)cc12` [Compound 199, 1′-(methyl)-1,2-dihydro-5-fluoro-1-(3-dichloromethyl-benzoyl)-spiro[3H-indole-3,4′-piperidine]] showed an IC50 of 382 nM.
As to `C=CCN1CCC2(CC1)CN(C(=O)c1cccnc1SC)c1ccc(F)cc12` [Compound 215, 1′-(allyl)-1,2-dihydro-5-fluoro-1-(2-methylsulfanyl-pyridine-3-carbonyl)-spiro[3H-indole-3,4′-piperidine]], the 50% inhibitory concentration (IC50) was determined as 607 nM. Against the preceding compound, the IC50 is about 1.6-fold higher.
`C=CCN1CCC2(CC1)CN(C(=O)c1cc(Cl)sc1Cl)c1ccc(F)cc12` [Compound 211, 1′-(allyl)-1,2-dihydro-5-fluoro-1-(2,5-dichloro-thiophene-3-carbonyl)-spiro[3H-indole-3,4′-piperidine]]: the IC50 is 855 nM.
`C=CCN1CCC2(CC1)CN(S(=O)(=O)c1cc(Cl)c(Cl)s1)c1ccc(F)cc12` [Compound 210, 1′-(allyl)-1,2-dihydro-5-fluoro-1-(4,5-dichloro-thiophene-2-sulfonyl)-spiro[3H-indole-3,4′-piperidine]] came in with an IC50 of 890 nM.
The figure for `O=C(c1ccccc1Cl)N1CC2(CCN(CC3CC3)CC2)c2ccccc21` [Compound 101, 1′-(cyclopropylmethyl)-1,2-dihydro-1-(2-chloro-benzoyl)-spiro[3H-indole-3,4′-piperidine]] is 792 nM; for `O=S(=O)(c1ccc(Cl)cc1Cl)N1CC2(CCN(CC3CC3)CC2)c2cc(F)ccc21` [Compound 192, 1′-(cyclopropylmethyl)-1,2-dihydro-5-fluoro-1-(2,4-dichloro-benzenesulfonyl)-spiro[3H-indole-3,4′-piperidine]] it is 891 nM; for `O=C(c1ccc2ccccc2c1)N1CC2(CCN(CC3CC3)CC2)c2cc(F)ccc21` [Compound 160, 1′-(cyclopropylmethyl)-1,2-dihydro-5-fluoro-1-(naphthylene-2-carbonyl)-spiro[3H-indole-3,4′-piperidine]] it is 721 nM.
With `C=CCN1CCC2(CC1)CN(S(=O)(=O)c1ccc(Cl)s1)c1ccc(F)cc12` [Compound 214, 1′-(allyl)-1,2-dihydro-5-fluoro-1-(5-chloro-thiophene-2-sulfonyl)-spiro[3H-indole-3,4′-piperidine]] the figure was 455 nM.
As to `C=CCN1CCC2(CC1)CN(S(=O)(=O)c1ccccc1Cl)c1ccc(F)cc12` [Compound 206, 1′-(allyl)-1,2-dihydro-5-fluoro-1-(2-chloro-benzenesulfonyl)-spiro[3H-indole-3,4′-piperidine]], the IC50 was 303 nM.

Values taken from patent US20070254903A1, “Novel Spiroindoline or Spiroisoquinoline Compounds, Methods of Use and Compositions Thereof” (ARENA PHARMACEUTICALS, INC., priority 2003, published 2007).
